Laboratory results published in patent US11739098B2 (BRISTOL-MYERS SQUIBB COMPANY, priority 2017, dated 2023).

How the values were obtained:
Assay type in all cases: cell-based
human TLR7 = target: T1, human TLR7 (Homo sapiens, UniProt Q9NYK1); experiment: TLR7 inhibition reporter assay (HEK-Blue cells, SEAP reporter, gardiquimod stimulation); conditions: HEK-Blue cells overexpressing human TLR7, SEAP reporter, gardiquimod 7.5 μM
T1 construct: host or cells: HEK-Blue cells (HEK293-derived reporter line)
T1 sequence (Q9NYK1 27-1049): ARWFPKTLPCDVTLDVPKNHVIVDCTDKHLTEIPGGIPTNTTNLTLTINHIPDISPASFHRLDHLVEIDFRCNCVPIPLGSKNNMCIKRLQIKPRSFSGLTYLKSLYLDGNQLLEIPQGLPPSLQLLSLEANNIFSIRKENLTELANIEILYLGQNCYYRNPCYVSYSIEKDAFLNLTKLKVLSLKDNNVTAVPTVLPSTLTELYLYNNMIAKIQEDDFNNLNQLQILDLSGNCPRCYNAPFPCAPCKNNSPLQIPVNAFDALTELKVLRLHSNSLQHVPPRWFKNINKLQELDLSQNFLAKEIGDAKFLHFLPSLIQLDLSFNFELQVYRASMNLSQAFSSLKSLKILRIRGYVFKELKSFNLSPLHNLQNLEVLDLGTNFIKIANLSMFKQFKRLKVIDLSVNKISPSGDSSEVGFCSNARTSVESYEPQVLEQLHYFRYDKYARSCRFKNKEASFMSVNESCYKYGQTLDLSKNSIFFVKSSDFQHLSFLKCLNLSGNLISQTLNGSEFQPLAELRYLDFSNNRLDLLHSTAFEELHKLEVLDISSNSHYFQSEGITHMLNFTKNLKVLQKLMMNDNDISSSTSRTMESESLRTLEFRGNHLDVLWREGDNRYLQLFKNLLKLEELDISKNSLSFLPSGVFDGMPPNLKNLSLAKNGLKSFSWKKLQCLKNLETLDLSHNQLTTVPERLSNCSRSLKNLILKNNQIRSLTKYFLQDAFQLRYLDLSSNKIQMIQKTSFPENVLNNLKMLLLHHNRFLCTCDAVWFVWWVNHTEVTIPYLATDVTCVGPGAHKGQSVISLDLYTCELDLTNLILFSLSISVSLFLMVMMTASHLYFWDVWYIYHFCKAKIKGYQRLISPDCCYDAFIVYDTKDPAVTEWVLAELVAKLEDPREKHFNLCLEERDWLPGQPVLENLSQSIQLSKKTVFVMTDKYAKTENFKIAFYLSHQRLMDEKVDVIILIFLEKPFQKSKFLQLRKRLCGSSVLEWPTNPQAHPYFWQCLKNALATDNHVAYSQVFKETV
Procedure, shortened: (§1)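 HEK-Blue cells overexpressing human TLR7, TLR8 or TLR9 (NF-κB/AP-1-driven SEAP) pre-treated 30 min at room temperature with compound (0.05 nM–50 μM), then stimulated with gardiquimod 7.5 μM (TLR7), R848 15.9 μM (TLR8) or ODN2006 5 nM (TLR9). SEAP read colorimetrically after 22 h at 37 °C; % inhibition calculated.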

human TLR8 = target: T2, human TLR8 (Homo sapiens, UniProt Q9NR97); experiment: TLR8 inhibition reporter assay (HEK-Blue cells, SEAP reporter, R848 stimulation); conditions: HEK-Blue cells overexpressing human TLR8, SEAP reporter, R848 15.9 μM
T2 construct: host or cells: HEK-Blue cells (HEK293-derived reporter line)
T2 sequence (Q9NR97 27-1041): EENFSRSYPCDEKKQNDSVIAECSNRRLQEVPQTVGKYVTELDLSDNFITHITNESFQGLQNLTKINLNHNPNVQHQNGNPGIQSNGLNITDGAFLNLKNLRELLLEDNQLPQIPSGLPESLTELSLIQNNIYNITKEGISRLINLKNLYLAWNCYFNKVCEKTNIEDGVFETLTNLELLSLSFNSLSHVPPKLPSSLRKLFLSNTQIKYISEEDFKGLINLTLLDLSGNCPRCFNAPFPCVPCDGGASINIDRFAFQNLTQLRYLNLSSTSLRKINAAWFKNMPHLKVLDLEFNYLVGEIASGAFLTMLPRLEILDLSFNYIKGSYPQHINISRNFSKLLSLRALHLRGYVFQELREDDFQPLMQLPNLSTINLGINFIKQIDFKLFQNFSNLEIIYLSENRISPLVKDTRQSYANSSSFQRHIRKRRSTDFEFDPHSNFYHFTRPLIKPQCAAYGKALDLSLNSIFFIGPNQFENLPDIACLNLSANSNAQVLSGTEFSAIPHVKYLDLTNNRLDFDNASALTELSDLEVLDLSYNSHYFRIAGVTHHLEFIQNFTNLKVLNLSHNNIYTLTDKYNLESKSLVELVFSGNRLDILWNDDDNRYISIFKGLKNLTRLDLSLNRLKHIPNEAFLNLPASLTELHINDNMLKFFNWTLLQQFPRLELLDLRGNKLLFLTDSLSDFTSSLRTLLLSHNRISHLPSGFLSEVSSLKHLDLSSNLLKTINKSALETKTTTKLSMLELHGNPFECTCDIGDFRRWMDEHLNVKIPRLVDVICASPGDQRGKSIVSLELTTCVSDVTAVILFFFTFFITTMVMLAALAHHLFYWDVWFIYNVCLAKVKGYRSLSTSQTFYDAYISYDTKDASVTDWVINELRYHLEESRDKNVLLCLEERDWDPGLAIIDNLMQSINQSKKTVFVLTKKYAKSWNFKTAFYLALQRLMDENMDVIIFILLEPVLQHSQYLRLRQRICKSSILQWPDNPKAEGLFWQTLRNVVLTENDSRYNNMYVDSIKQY
Procedure, shortened: as §1

human TLR9 = target: T3, human TLR9 (Homo sapiens, UniProt Q9NR96); experiment: TLR9 inhibition reporter assay (HEK-Blue cells, SEAP reporter, ODN2006 stimulation); conditions: HEK-Blue cells overexpressing human TLR9, SEAP reporter, ODN2006 5 nM
T3 construct: host or cells: HEK-Blue cells (HEK293-derived reporter line)
T3 sequence (Q9NR96 26-1032): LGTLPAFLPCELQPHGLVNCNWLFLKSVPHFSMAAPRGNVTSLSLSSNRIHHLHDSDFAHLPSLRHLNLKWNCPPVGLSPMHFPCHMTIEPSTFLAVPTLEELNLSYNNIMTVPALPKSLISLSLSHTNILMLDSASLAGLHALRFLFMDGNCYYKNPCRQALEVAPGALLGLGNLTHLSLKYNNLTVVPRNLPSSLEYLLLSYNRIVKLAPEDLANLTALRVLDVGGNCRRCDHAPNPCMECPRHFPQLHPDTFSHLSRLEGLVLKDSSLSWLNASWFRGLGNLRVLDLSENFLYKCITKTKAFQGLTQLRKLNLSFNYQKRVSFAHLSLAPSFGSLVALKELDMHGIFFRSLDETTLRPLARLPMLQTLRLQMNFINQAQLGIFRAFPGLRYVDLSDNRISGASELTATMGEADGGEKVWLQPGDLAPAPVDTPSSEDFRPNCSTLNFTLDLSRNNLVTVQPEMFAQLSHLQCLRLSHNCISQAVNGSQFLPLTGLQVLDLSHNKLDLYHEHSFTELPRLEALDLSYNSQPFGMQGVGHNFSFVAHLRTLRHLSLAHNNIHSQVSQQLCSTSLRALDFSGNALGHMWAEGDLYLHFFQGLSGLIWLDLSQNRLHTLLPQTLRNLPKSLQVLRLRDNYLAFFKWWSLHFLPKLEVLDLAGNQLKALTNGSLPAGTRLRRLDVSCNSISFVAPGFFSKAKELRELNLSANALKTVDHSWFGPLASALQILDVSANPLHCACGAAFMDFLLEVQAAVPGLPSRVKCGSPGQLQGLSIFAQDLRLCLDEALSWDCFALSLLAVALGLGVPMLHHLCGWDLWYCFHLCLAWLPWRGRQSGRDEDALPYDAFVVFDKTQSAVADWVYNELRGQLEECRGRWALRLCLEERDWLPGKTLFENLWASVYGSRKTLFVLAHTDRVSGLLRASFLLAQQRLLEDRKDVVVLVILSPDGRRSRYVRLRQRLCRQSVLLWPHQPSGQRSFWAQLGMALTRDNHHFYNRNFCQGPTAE
Procedure, shortened: as §1

Compound | IC50 (human TLR7) [nM] | IC50 (human TLR8) [nM] | IC50 (human TLR9) [nM]
CCC(C)NCC(=O)N1CCC(c2ccc3[nH]c(-c4ccnc5[nH]ncc45)c(C(C)C)c3c2)CC1 (stereo not drawn) [Example 583, 2-(sec-butylamino)-1-(4-(3-isopropyl-2-(1H-pyrazolo[3,4-b]pyridin-4-yl)-1H-indol-5-yl)piperidin-1-yl)ethan-1-one] | < 100 | < 100 | 1000 to 50000
COc1cc(-c2[nH]c3ccc(C4CCN(CC(C)(C)O)CC4)cc3c2C(C)C)nn2ncnc12 [Example 749, 1-(4-(3-isopropyl-2-(8-methoxy-[1,2,4]triazolo[1,5-b]pyridazin-6-yl)-1H-indol-5-yl)piperidin-1-yl)-2-methylpropan-2-ol] | < 100 | < 100 | 1000 to 50000
CCc1c(-c2ccnc3[nH]ncc23)[nH]c2ccc(C3CCNCC3O)cc12 (stereo not drawn) [Example 175, 4-(3-ethyl-2-(1H-pyrazolo[3,4-b]pyridin-4-yl)-1H-indol-5-yl)piperidin-3-ol] | 100 to 1000 | 100 to 1000 | 1000 to 50000
CCc1c(-c2ccnc3[nH]nc(C)c23)[nH]c2ccc(C3CCN(Cc4cnc[nH]4)CC3)cc12 [Example 873, 4-(5-(1-((1H-imidazol-5-yl)methyl)piperidin-4-yl)-3-ethyl-1H-indol-2-yl)-3-methyl-1H-pyrazolo[3,4-b]pyridine] | < 100 | < 100 | 100 to 1000
Cc1cc2[nH]c(-c3ccnc4[nH]ncc34)c(C(C)C)c2cc1C1CCN(C2CCN(C(C)C)CC2)CC1 [Example 826, 4-(3-isopropyl-5-(1′-isopropyl-[1,4′-bipiperidin]-4-yl)-6-methyl-1H-indol-2-yl)-1H-pyrazolo[3,4-b]pyridine] | < 100 | < 100 | 100 to 1000
CCCCc1nc(Cl)c(CN2CCC(c3ccc4[nH]c(-c5ccnc6[nH]ncc56)c(C(C)C)c4c3)CC2)[nH]1 [Example 896, 4-(5-(1-((2-butyl-4-chloro-1H-imidazol-5-yl)methyl)piperidin-4-yl)-3-isopropyl-1H-indol-2-yl)-1H-pyrazolo[3,4-b]pyridine] | 100 to 1000 | < 100 | 1000 to 50000
COc1cc(-c2[nH]c3ccc(C4CCN(C5CCOCC5)CC4)cc3c2C(C)C)nn2ncnc12 [Example 692, 6-(3-isopropyl-5-(1-(tetrahydro-2H-pyran-4-yl)piperidin-4-yl)-1H-indol-2-yl)-8-methoxy-[1,2,4]triazolo[1,5-b]pyridazine] | < 100 | < 100 | 1000 to 50000
CC(C)c1c(-c2ccc3c(c2)oc(=O)n3C)[nH]c2ccc(C3CCNCC3)cc12 [Example 89, 6-(3-isopropyl-5-(piperidin-4-yl)-1H-indol-2-yl)-3-methylbenzo[d]oxazol-2(3H)-one] | 100 to 1000 | < 100 | 100 to 1000
CC(C)c1c(-c2cnc3ccnn3c2)[nH]c2ccc(C3CCN(C4COC4)CC3)cc12 [Example 713, 6-(3-isopropyl-5-(1-(oxetan-3-yl)piperidin-4-yl)-1H-indol-2-yl)pyrazolo[1,5-a]pyrimidine] | > 3130 | > 3130 | 1000 to 50000
Cc1ccnc2c1c(-c1[nH]c3ccc(C4CCN(CC(=O)N(C)C)CC4)cc3c1C(C)C)cn2C [Example 285, 2-(4-(2-(1,4-dimethyl-1H-pyrrolo[2,3-b]pyridin-3-yl)-3-isopropyl-1H-indol-5-yl)piperidin-1-yl)-N,N-dimethylacetamide] | < 100 | < 100 | 1000 to 50000
Cc1cc(-c2[nH]c3ccc(C4CCN(C(=O)C[C@H](C)O)CC4)cc3c2C(C)C)cc2ncnn12 [Example 600, (S)-3-hydroxy-1-(4-(3-isopropyl-2-(5-methyl-[1,2,4]triazolo[1,5-a]pyridin-7-yl)-1H-indol-5-yl)piperidin-1-yl)butan-1-one] | < 100 | 100 to 1000 | 1000 to 50000
CC(C)c1c(-c2cc(F)c3nccn3c2)[nH]c2ccc(C3CCNCC3)cc12 [Example 118, 8-fluoro-6-(3-isopropyl-5-(piperidin-4-yl)-1H-indol-2-yl)imidazo[1,2-a]pyridine] | < 100 | < 100 | 100 to 1000
CNC(=O)CN1CCC(c2ccc3[nH]c(-c4cc(C(F)(F)F)c5nccn5c4)c(C(C)C)c3c2)CC1 [Example 373, 2-(4-(3-isopropyl-2-(8-(trifluoromethyl)imidazo[1,2-a]pyridin-6-yl)-1H-indol-5-yl)piperidin-1-yl)-N-methylacetamide] | < 100 | < 100 | 1000 to 50000
CC(C)c1c(-c2ccnc3[nH]ncc23)[nH]c2ccc(C3CCN(CCN4CCCCCC4)CC3)cc12 [Example 660, 4-(5-(1-(2-(azepan-1-yl)ethyl)piperidin-4-yl)-3-isopropyl-1H-indol-2-yl)-1H-pyrazolo[3,4-b]pyridine] | < 100 | < 100 | 100 to 1000
